Data set [1] can be described thus: in vivo. The conditions noted are these: mouse.
For data set [2] the following is noted: 4 hr after administration.
Data set [3] is described as follows: Plasma levels after chronic Curc or TC administration in diet (500 ppm chow, 4 months). It is filed as in vivo, APPsw mice. The settings on record: for Plasma (μM) / concentration at 4 months: APPsw mice, 500 mg/kg chow (2.5 mg/day), 4 months; for concentration at 4 months: mouse, plasma, oral.
The format of data set [4] is physicochemical. The source says: Therefore, providing a curcuminoid-to-antioxidant ratio of about 10:1 or higher should be sufficient to prevent hydrolysis during absorption, and enhance bioavailability. […] Thus, additional antioxidant need not add prohibitively to the bulk of a formulation.
Data set [5] has as its system iNOS. Put plainly: Inhibition of iNOS in brain after curcumin administration. The format is in vivo. The settings on record: mice, plasma levels 0.25-0.5 micromolar.
Data set [6] relates to IL-1β. Put plainly: Inhibition of pro-inflammatory IL-1β in brain after curcumin administration. It is filed as in vivo. The conditions noted are these: mice, plasma levels 0.25-0.5 micromolar.
Data set [7] concerns active c-jun kinase (p)JNK. Put plainly: Inhibition of active c-jun kinase in brain after curcumin administration. It is filed as in vivo. The settings on record: mice, plasma levels 0.25-0.5 micromolar.
Data set [8] is described as follows: Conversion of curcumin to tetrahydrocurcumin in plasma. The format is in vivo.
For data set [9], the system named is amyloid accumulation. Put plainly: Amyloid accumulation in vivo in APP Tg mice.

Each structure is given as a SMILES string. Read-outs that look alike come from different tables or passages of the source. Marks after values point to notes of the source that are not given here.

On to `COc1cc(CCC(=O)CC(=O)CCc2ccc(O)c(OC)c2)ccc1O` [TC, tetrahydrocurcumin], for which the concentration at 4 hr in [1] (73.5 μg) was found to be 971 ± 92 ng/mL; in data set [1] (ip, 147 μg) it was 847 ± 19 ng/mL. Further, the “Plasma (μM)” value in [2] (i.m., dose 73.5 μg) is “(2.639 μM)”; in [2] (i.p., dose 147.0 μg), “(2.302 μM)”; in data set [3], “(0.734 μM)”. Also, in data set [3], the concentration at 4 months turned out to be 270 ± 3 ng/mL. For the same compound, the “plasma levels relative to curcumin” value in [3] (same oral doses, our data and data in the literature) is 7-8 times. Also, the “stability in aqueous solution” value in data set [4] was “stable even at basic pH”. In addition, the “Brain (μg/10 mg protein)” value is recorded as 0.027 ± 0.002^a μg/10 mg protein (gav, dose 147.0 μg, 4 hr after administration); 0.223 ± 0.023^c μg/10 mg protein (i.m., dose 73.5 μg, 4 hr after administration); 0.076 ± 0.003^b μg/10 mg protein (i.p., dose 147.0 μg, 4 hr after administration).

On to `O=C1O[C@H]([C@@H](O)CO)C(O)=C1O` [ascorbic acid], for which the retarding curcumin hydrolysis result in data set [4] (25 micromolar curcumin, PBS pH 7.4, absorbance at 426 nm (FIG. 2)) is on record as “very effective”. For the same compound, the “retarding hydrolysis of curcumin” value in [4] (curcumin-to-ascorbic acid ratio of 1:1 or 2:1, absorbance at 450 and 405 nm (FIGS. 3 and 4)) is reported as “very effective”; in data set [4] (curcumin-to-ascorbic acid ratios higher than 2:1 (FIGS. 3 and 4)), “somewhat diminished effectiveness”.

Regarding `COc1cc(/C=C/C(=O)CC(=O)/C=C/c2ccc(O)c(OC)c2)ccc1O` [Curc, curcumin], the concentration at 4 hr in data set [1] was 250 to 500 nM. Further, the “inhibition of iNOS” value in data set [5] was roughly 50%. In addition, in data set [3], the “Plasma (μM)” value is recorded as “(0.095 μM)” and the concentration at 4 months was determined as 35 ± 14 ng/mL. Further, the “inhibition of pro-inflammatory IL-1β” value in data set [6] is reported as roughly 50%. The “inhibition of active c-jun kinase (p)JNK” value in [7] is recorded as roughly 50%. In [8], the “curcuminoids in plasma naturally converted to tetrahydrocurcumin” value came to 25%. Also, in [4], the “stability in aqueous solution” value is recorded as “unstable in aqueous solutions above pH 7.0”. The amyloid accumulation result in data set [9] is “effectively reduces”. In addition, where the note is “mouse, in vivo, ip, 4 hr”, the “Brain (μg/10 mg protein)” value is 0.074 ± 0.003^b μg/10 mg protein.
